These results are taken from patent publication US9814663B2, “Peptide, method and composition for inhibiting melanogenesis” (RENORIGIN INNOVATION INSTITUTE CO., LTD., priority 2016, dated 2017).

Assay type in all cases: cell-based, murine
One assay concerns B16F10 melanoma cells. The assay can be described thus: Cell pigmentation of treated B16F10 cultures (FIG. 1). As to conditions: 50 μg/ml peptide, 5 days. As to the method: B16F10 melanoma cells were treated with 10-50 μg/ml peptide of SEQ ID NO: 1 (“Lf H-392-399”) for 5 days with a medium change at day 3. The cells and medium were recovered in test tubes. Kojic acid is used as […] in the cellular study due to known inhibitory effects on tyrosinase activity. IBMX is used as positive control in the cellular study due to known elevator of cellular cAMP level, […].
(§1) B16F10 murine melanoma cells were cultured in phenol red-free DMEM with 10% fetal bovine serum and penicillin/streptomycin (100 IU/50 […]) in a humidified atmosphere containing 5% CO2 in air at 37° C.

A further assay concerns B16F10 cells. The assay can be described thus: Melanin content assay. As to conditions: 10 and 50 μg/ml peptide, 5 days, p<0.05 compared to control. As to the method: as §1
Melanin contents of cultured B16F10 cells were measured according to the method (Lee et al., J Invest Dermatol 124, 405-411, 2005) with a slight modification. Briefly, B16F10 cells were seeded in 6-well plate (2×10^4 cells/well) and incubated overnight to allow cells to adhere. After treating with various test samples in an incubator for 5 days, washed, trypsinized and counted before pelleting. Melanin per cell was quantified after boiling in 1 M NaOH for 1 hour and melanin content in each sample was read from a calibration curve against synthetic eumelanin at 400 nm and converted to means±SE melanin pg/cell from 3 independent experiments.

Assay [1] has as its system Tyrosinase. The assay can be described thus: Tyrosinase assay (cell lysate, L-DOPA). The conditions noted are these: B16F10 cells, 10 and 50 μg/ml peptide, 5 days; p<0.05 compared to control. As to the method:
as §1
Tyrosinase is the rate limiting enzyme in the melanogenic pathway. Its measurement provides a highly specific and sensitive indication of degree of induction of melanogenesis. Tyrosinase enzyme activity of cultured B16F10 cells were measured according to the method of (Bellei et al., J Biol Chem 285, 7288-7299, 2010) with a slight modification. Briefly, B16F10 cells were seeded in 6-well plate (2×10^4 cells/well) and incubated overnight to allow cells to adhere. After treating with various test samples in an incubator for 5 days, cells were washed with PBS and then harvested using trypsin. At the end point, the cells were solubilized with phosphate buffer (pH 6.8) containing 1% Triton X-100. The cells were then disrupted by freezing and thawing, and the lysates were clarified by centrifugation at 10,000×g for 10 min. After protein quantification and adjustment of protein concentrations with lysis buffer, 100 μl of each lysate (each containing the same amount of protein) were aliquoted into the wells of a 96-well plate, and 100 μl of 5 mM L-DOPA were then added to each well. The absorbance was measured spectrophotometrically at 475 nm following a 30-min incubation period at 37° C. […]

For assay [2], the system named is Tyrosinase. The assay can be described thus: DOPA staining. As to conditions: B16F10 cells, 10 and 50 μg/ml peptide, 4 days. The method, then:
as §1
DOPA staining was also performed to measure tyrosinase enzyme activity. B16F10 cells were seeded in 6-well plate (2×10^4 cells/well) and incubated overnight to allow cells to adhere. After treating with various test samples in an incubator for 4 days, cells were washed with PBS, fixation with 2% paraformaldehyde and washing with PBS a further three times, the cells were incubated with 0.1% DOPA (dissolved in 0.1 M PBS) at 37° C. for 5 hour, and observed using light microscopy (Wang et al., Exp Ther Med 6, 967-972, 2013).

Regarding “SSASTTED (listed as Homo sapiens) [Lf H-392-399]”, in the assay on B16F10 melanoma cells, the cell pigmentation result is recorded as “reduced cell pigmentation”. Moreover, the “melanin synthesis (melanin content in cells and melanin secretion in culture medium)” value in the assay on B16F10 cells is reported as “significantly decreased melanin synthesis”. Also, the tyrosinase activity result in the assay with Tyrosinase [1] is “significantly decreased tyrosinase activity”. In addition, in the assay on Tyrosinase [2], the DOPA staining result is reported as “weaker DOPA staining”.
